Test results as given in US10597388B2, “Pyridazinone herbicides” (FMC CORPORATION, priority 2014, dated 2020).

Tests used:
Assay in all cases: Test D controlled growth environment herbicide test, pre- and postemergence
Assay type in all cases: in vivo
[1] = test system: bromegrass, downy (downy bromegrass, Bromus tectorum)
Procedure, shortened: (§1)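 Rating is visual, 0–100 scale (100 = complete control), made against untreated plants 14–21 d after treatment in controlled growth conditions. Postemergence sprays went onto 1- to 4-leaf plants in peat medium; preemergence sprays onto silt loam after sowing; formulation included a surfactant.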

[2] = test system: foxtail, green (green foxtail, Setaria viridis)
Procedure, shortened: as §1

[3] = test system: mustard, wild (wild mustard, Sinapis arvensis)
Procedure, shortened: as §1

[4] = test system: kochia (Kochia scoparia)
Procedure, shortened: as §1

[5] = test system: buckwheat, wild (wild buckwheat, Polygonum convolvulus)
Procedure, shortened: as §1

[6] = test system: windgrass (Apera spica-venti)
Procedure, shortened: as §1

[7] = test system: ryegrass, Italian (Italian ryegrass, Lolium multiflorum)
Procedure, shortened: as §1

[8] = test system: pigweed (Amaranthus retroflexus)
Procedure, shortened: as §1

[9] = test system: chamomile (scentless chamomile, Matricaria inodora)
Procedure, shortened: as §1

[10] = test system: oilseed rape (Brassica napus)
Procedure, shortened: as §1

[11] = test system: deadnettle (henbit deadnettle, Lamium amplexicaule)
Procedure, shortened: as §1

[12] = test system: blackgrass (Alopecurus myosuroides)
Procedure, shortened: as §1

[13] = test system: galium (catchweed bedstraw, Galium aparine)
Procedure, shortened: as §1

[14] = test system: speedwell (bird's-eye speedwell, Veronica persica)
Procedure, shortened: as §1

[15] = Postemergence, 31 g ai/ha, scale 0 to 100 (0 no effect, 100 complete control)
[16] = Postemergence, 125 g ai/ha, visual rating on scale 0 (no effect) to 100 (complete control), 14 to 21 d
[17] = Postemergence, 250 g ai/ha, scale 0 to 100 (0 no effect, 100 complete control)
[18] = Preemergence, 62 g ai/ha, scale 0 to 100 (0 no effect, 100 complete control)
[19] = Preemergence, 125 g ai/ha, scale 0 to 100 (0 no effect, 100 complete control)
[20] = Preemergence, 250 g ai/ha, scale 0 to 100, 0 no effect, 100 complete control
[21] = postemergence, 62 g ai/ha, scale 0 to 100, 0 no effect, 100 complete control

Q: Which “Bromegrass, Downy plant response rating” value [1, 15] does the source give for `Cc1nn(C)c(=O)c(-c2ccc(Br)c3ccccc23)c1O` [Compound 75] here?
A: The value was 0.

Q: What about the “Plant response rating, Bromegrass, Downy” value [1, 16] of the same molecule?
A: Its value is 15.

Q: And the “Plant response rating, Bromegrass, Downy” value [1, 17]?
A: Its value is 30.

Q: And the “Plant response rating (scale of 0 to 100), Bromegrass, Downy” value ([1]; Preemergence, 31 g ai/ha)?
A: The value was 0.

Q: What about the “Plant response rating, Bromegrass, Downy” value [1, 18] of the same molecule?
A: The value was 0.

Q: What about the “Plant response rating, Bromegrass, Downy” value [1, 19] of the same molecule?
A: Its value is 10.

Q: What about the “Plant response rating, Bromegrass, Downy” value [1, 20] of the same molecule?
A: The value was 25.

Q: And the “Plant response rating, Bromegrass, Downy” value [1, 21]?
A: Its value is 0.

Q: What about the “Foxtail, Green plant response rating” value [2, 15] of the same molecule?
A: Its value is 0.

Q: And the “Plant response rating, Foxtail, Green” value [2, 16]?
A: Its value is 55.

Q: What about the “Plant response rating, Foxtail, Green” value [2, 17] of the same molecule?
A: The value was 60.

Q: What about the “Plant response rating (scale of 0 to 100), Foxtail, Green” value ([2]; Preemergence, 31 g ai/ha) of the same molecule?
A: Its value is 15.

Q: What about the “Plant response rating, Foxtail, Green” value [2, 18] of the same molecule?
A: The value was 35.

Q: What about the “Plant response rating, Foxtail, Green” value [2, 19] of the same molecule?
A: Its value is 55.

Q: What about the “Plant response rating, Foxtail, Green” value [2, 20] of the same molecule?
A: Its value is 100.

Q: And the “Plant response rating, Foxtail, Green” value [2, 21]?
A: Its value is 25.

Q: What about the “Mustard, Wild plant response rating” value [3, 15] of the same molecule?
A: The value was 100.

Q: What about the “Plant response rating, Mustard, Wild” value [3, 16] of the same molecule?
A: Its value is 100.

Q: And the “Plant response rating, Mustard, Wild” value [3, 17]?
A: Its value is 100.

Q: And the “Plant response rating (scale of 0 to 100), Mustard, Wild” value ([3]; Preemergence, 31 g ai/ha)?
A: The value was 55.

Q: What about the “Plant response rating, Mustard, Wild” value [3, 18] of the same molecule?
A: The value was 35.

Q: And the “Plant response rating, Mustard, Wild” value [3, 19]?
A: Its value is 100.

Q: And the “Plant response rating, Mustard, Wild” value [3, 20]?
A: Its value is 95.

Q: What about the “Plant response rating, Mustard, Wild” value [3, 21] of the same molecule?
A: Its value is 100.

Q: What about the “Kochia plant response rating” value [4, 15] of the same molecule?
A: The value was 95.

Q: And the “Plant response rating, Kochia” value [4, 16]?
A: Its value is 100.

Q: And the “Plant response rating, Kochia” value [4, 17]?
A: Its value is 100.

Q: And the “Plant response rating (scale of 0 to 100), Kochia” value ([4]; Preemergence, 31 g ai/ha)?
A: Its value is 65.

Q: And the “Plant response rating, Kochia” value [4, 18]?
A: Its value is 80.

Q: What about the “Plant response rating, Kochia” value [4, 19] of the same molecule?
A: Its value is 80.

Q: And the “Plant response rating, Kochia” value [4, 20]?
A: The value was 100.

Q: And the “Plant response rating, Kochia” value [4, 21]?
A: Its value is 100.

Q: And the “Buckwheat, Wild plant response rating” value [5, 15]?
A: The value was 100.

Q: And the “Plant response rating, Buckwheat, Wild” value [5, 16]?
A: Its value is 100.

Q: What about the “Plant response rating, Buckwheat, Wild” value [5, 17] of the same molecule?
A: Its value is 100.

Q: And the “Plant response rating (scale of 0 to 100), Buckwheat, Wild” value ([5]; Preemergence, 31 g ai/ha)?
A: The value was 0.

Q: And the “Plant response rating, Buckwheat, Wild” value [5, 18]?
A: Its value is 0.

Q: What about the “Plant response rating, Buckwheat, Wild” value [5, 19] of the same molecule?
A: The value was 0.

Q: And the “Plant response rating, Buckwheat, Wild” value [5, 20]?
A: The value was 50.

Q: And the “Plant response rating, Buckwheat, Wild” value [5, 21]?
A: Its value is 100.

Q: What about the “Windgrass plant response rating” value [6, 15] of the same molecule?
A: Its value is 10.

Q: What about the “Plant response rating, Windgrass” value [6, 16] of the same molecule?
A: The value was 40.

Q: What about the “Plant response rating, Windgrass” value [6, 17] of the same molecule?
A: The value was 65.

Q: What about the “Plant response rating (scale of 0 to 100), Windgrass” value ([6]; Preemergence, 31 g ai/ha) of the same molecule?
A: Its value is 0.

Q: And the “Plant response rating, Windgrass” value [6, 18]?
A: The value was 15.

Q: And the “Plant response rating, Windgrass” value [6, 19]?
A: The value was 50.

Q: And the “Plant response rating, Windgrass” value [6, 20]?
A: The value was 85.

Q: And the “Plant response rating, Windgrass” value [6, 21]?
A: Its value is 15.

Q: And the “Ryegrass, Italian plant response rating” value [7, 15]?
A: The value was 90.

Q: And the “Plant response rating, Ryegrass, Italian” value [7, 16]?
A: The value was 95.

Q: What about the “Plant response rating, Ryegrass, Italian” value [7, 17] of the same molecule?
A: The value was 98.

Q: What about the “Plant response rating (scale of 0 to 100), Ryegrass, Italian” value ([7]; Preemergence, 31 g ai/ha) of the same molecule?
A: The value was 95.

Q: And the “Plant response rating, Ryegrass, Italian” value [7, 18]?
A: Its value is 100.

Q: What about the “Plant response rating, Ryegrass, Italian” value [7, 19] of the same molecule?
A: The value was 100.

Q: And the “Plant response rating, Ryegrass, Italian” value [7, 20]?
A: Its value is 0.

Q: And the “Plant response rating, Ryegrass, Italian” value [7, 21]?
A: The value was 95.

Q: And the “Pigweed plant response rating” value [8, 15]?
A: The value was 100.

Q: And the “Plant response rating, Pigweed” value [8, 16]?
A: Its value is 100.

Q: And the “Plant response rating, Pigweed” value [8, 17]?
A: Its value is 100.

Q: And the “Plant response rating (scale of 0 to 100), Pigweed” value ([8]; Preemergence, 31 g ai/ha)?
A: Its value is 85.

Q: What about the “Plant response rating, Pigweed” value [8, 18] of the same molecule?
A: The value was 100.

Q: And the “Plant response rating, Pigweed” value [8, 19]?
A: Its value is 100.

Q: What about the “Plant response rating, Pigweed” value [8, 20] of the same molecule?
A: Its value is 100.

Q: What about the “Plant response rating, Pigweed” value [8, 21] of the same molecule?
A: The value was 100.

Q: What about the “Chamomile plant response rating” value [9, 15] of the same molecule?
A: Its value is 80.

Q: And the “Plant response rating, Chamomile” value [9, 16]?
A: The value was 85.

Q: And the “Plant response rating, Chamomile” value [9, 17]?
A: The value was 100.

Q: What about the “Plant response rating, Chamomile” value [9, 21] of the same molecule?
A: Its value is 90.

Q: And the “Oilseed Rape plant response rating” value [10, 15]?
A: Its value is 70.

Q: And the “Plant response rating, Oilseed Rape” value [10, 16]?
A: Its value is 95.

Q: What about the “Plant response rating, Oilseed Rape” value [10, 17] of the same molecule?
A: Its value is 100.

Q: And the “Plant response rating (scale of 0 to 100), Oilseed Rape” value ([10]; Preemergence, 31 g ai/ha)?
A: Its value is 50.

Q: And the “Plant response rating, Oilseed Rape” value [10, 18]?
A: Its value is 75.

Q: And the “Plant response rating, Oilseed Rape” value [10, 19]?
A: The value was 100.

Q: What about the “Plant response rating, Oilseed Rape” value [10, 20] of the same molecule?
A: Its value is 100.

Q: And the “Plant response rating, Oilseed Rape” value [10, 21]?
A: The value was 95.

Q: What about the “Deadnettle plant response rating” value [11, 15] of the same molecule?
A: Its value is 75.

Q: And the “Plant response rating, Deadnettle” value [11, 16]?
A: The value was 95.

Q: What about the “Plant response rating, Deadnettle” value [11, 17] of the same molecule?
A: The value was 100.

Q: And the “Plant response rating (scale of 0 to 100), Deadnettle” value ([11]; Preemergence, 31 g ai/ha)?
A: The value was 30.

Q: What about the “Plant response rating, Deadnettle” value [11, 18] of the same molecule?
A: The value was 55.

Q: And the “Plant response rating, Deadnettle” value [11, 19]?
A: Its value is 90.

Q: What about the “Plant response rating, Deadnettle” value [11, 20] of the same molecule?
A: Its value is 100.

Q: What about the “Plant response rating, Deadnettle” value [11, 21] of the same molecule?
A: Its value is 90.

Q: What about the “Blackgrass plant response rating” value [12, 15] of the same molecule?
A: Its value is 15.

Q: What about the “Plant response rating, Blackgrass” value [12, 16] of the same molecule?
A: Its value is 65.

Q: And the “Plant response rating, Blackgrass” value [12, 17]?
A: Its value is 70.

Q: What about the “Plant response rating (scale of 0 to 100), Blackgrass” value ([12]; Preemergence, 31 g ai/ha) of the same molecule?
A: The value was 15.

Q: What about the “Plant response rating, Blackgrass” value [12, 18] of the same molecule?
A: The value was 30.

Q: What about the “Plant response rating, Blackgrass” value [12, 19] of the same molecule?
A: Its value is 40.

Q: What about the “Plant response rating, Blackgrass” value [12, 20] of the same molecule?
A: Its value is 55.

Q: What about the “Plant response rating, Blackgrass” value [12, 21] of the same molecule?
A: Its value is 20.

Q: What about the “Galium plant response rating” value [13, 15] of the same molecule?
A: Its value is 90.

Q: What about the “Plant response rating, Galium” value [13, 16] of the same molecule?
A: The value was 95.

Q: And the “Plant response rating, Galium” value [13, 17]?
A: The value was 100.

Q: And the “Plant response rating (scale of 0 to 100), Galium” value ([13]; Preemergence, 31 g ai/ha)?
A: Its value is 15.

Q: And the “Plant response rating, Galium” value [13, 18]?
A: Its value is 50.

Q: What about the “Plant response rating, Galium” value [13, 19] of the same molecule?
A: The value was 60.

Q: What about the “Plant response rating, Galium” value [13, 20] of the same molecule?
A: The value was 80.

Q: What about the “Plant response rating, Galium” value [13, 21] of the same molecule?
A: Its value is 95.

Q: And the “Speedwell plant response rating” value [14, 15]?
A: The value was 80.

Q: And the “Plant response rating, Speedwell” value [14, 16]?
A: Its value is 100.

Q: What about the “Plant response rating, Speedwell” value [14, 17] of the same molecule?
A: The value was 100.

Q: What about the “Plant response rating (scale of 0 to 100), Speedwell” value ([14]; Preemergence, 31 g ai/ha) of the same molecule?
A: The value was 95.

Q: What about the “Plant response rating, Speedwell” value [14, 18] of the same molecule?
A: The value was 100.

Q: And the “Plant response rating, Speedwell” value [14, 19]?
A: Its value is 100.

Q: What about the “Plant response rating, Speedwell” value [14, 20] of the same molecule?
A: The value was 100.

Q: What about the “Plant response rating, Speedwell” value [14, 21] of the same molecule?
A: Its value is 100.
